Experimental data as given in patent US5008268A, “2-aminopyrimidinone derivatives” (Janssen Pharmaceutica N.V., priority 1989, dated 1991).

Experiments:
Format in all cases: in vivo
peripheral serotonin = assay: Combined apomorphine, tryptamine and norepinephrine test in rats: tryptamine-induced hyperaemia of the ears; conditions: Rattus norvegicus, dose protecting half of tested animals from peripheral serotonin-induced phenomena, in particular hyperaemia of the ears
Excerpt: (§1) Int. Pharmacodyn. Ther. 251, 39-51 (1981).
Pharmacodyn, 227, 238-253 (1977). Said test provides an empirical evaluation of the relative specificity with which drugs may effect particular neurotransmitters centrally (CNS) as well as peripherally. […] The ED50 values of the tested compounds are listed in column 3 of table 4 and represent the dose in mg per kg bodyweight which protects half of the tested animals from peripheral serotonin-induced phenomena, in particular hyperaemia of the ears.

[1] = tested on: compound 48/80-induced gastric lesions; assay: Protection of rats from compound 48/80-induced gastric lesions (antiserotoninergic); conditions: Rattus norvegicus, dose at which stomach distention and glandular-area lesions are completely absent in half of the rats
Excerpt: as §1
The ED50 values of the tested compounds are listed in the second column of table 4. Said ED50 values are the doses in mg per kg bodyweight at which the distention of the stomach as well as lesions in the glandular area of the stomach are completely absent in half of the test rats.

[2] = tested on: compound 48/80-induced lethality; assay: Protection of rats from compound 48/80-induced lethality (antihistaminic); conditions: Rattus norvegicus, dose protecting 50% of tested animals against compound 48/80-induced lethality
Excerpt: as §1
The ED50 values of the tested compounds of formula (I) are listed in the first column of table 4. Said ED50 values are the values in mg per kg bodyweight at which the tested compounds protect 50% of the tested animals against compound 48/80-induced lethality.

Cc1nc2n(C)ccn2c(=O)c1CCN1CCC(Nc2nc3ccccc3n2Cc2ccc(CO)o2)CC1 [Compound 68]
ED50 (peripheral serotonin): 0.04 mg/kg
ED50 [1]: 0.04 mg/kg

Cc1nc2n(C)c(C)cn2c(=O)c1CCN1CCC(Nc2nc3ccccc3n2Cc2ccc(CO)o2)CC1 [Compound 71]
ED50 (peripheral serotonin): 0.01 mg/kg
ED50 [1]: 0.04 mg/kg

Cc1nc(NCc2ccccn2)n(C)c(=O)c1CCN1CCC(Cc2nc3ccccc3n2Cc2ccc(F)cc2)CC1 [Compound 21]
ED50 [2]: 0.04 mg/kg
ED50 (peripheral serotonin): 0.01 mg/kg
ED50 [1]: 0.08 mg/kg

Cc1nc(N)n(C)c(=O)c1CCN1CCC(Nc2nc3cccnc3n2Cc2ccc(CO)o2)CC1 [Compound 16]
ED50 [2]: 0.01 mg/kg
ED50 (peripheral serotonin): 0.005 mg/kg
ED50 [1]: 0.16 mg/kg

Cc1ccc(Cn2c(NC3CCN(CCc4c(C)nc5n(C)nc(C)n5c4=O)CC3)nc3cccnc32)o1 [Compound 67]
ED50 [2]: 0.04 mg/kg
ED50 (peripheral serotonin): 0.08 mg/kg
ED50 [1]: 0.08 mg/kg

Cc1nc2n(C)ccn2c(=O)c1CCN1CCC(Cc2nc3ccccc3n2Cc2ccc(CO)o2)CC1 [Compound 79]
ED50 (peripheral serotonin): 0.02 mg/kg
ED50 [1]: 0.04 mg/kg

Cc1ccc(Cn2c(NC3CCN(CCc4c(C)nc(NCc5ccccc5)n(C)c4=O)CC3)nc3cccnc32)o1 [Compound 3]
ED50 (peripheral serotonin): 0.005 mg/kg
ED50 [1]: 0.08 mg/kg

CCCCNc1nc(C)c(CCN2CCC(Nc3nc4cccnc4n3Cc3ccc(C)o3)CC2)c(=O)n1C [Compound 34]
ED50 [2]: 0.04 mg/kg
ED50 (peripheral serotonin): 0.02 mg/kg
ED50 [1]: 0.08 mg/kg

CCNc1nc(C)c(CCN2CCC(Nc3nc4ccccc4n3Cc3ccc(CO)o3)CC2)c(=O)n1C [Compound 29]
ED50 [2]: 0.08 mg/kg
ED50 (peripheral serotonin): 0.005 mg/kg
ED50 [1]: 0.16 mg/kg

CCOCCNc1nc(C)c(CCN2CCC(Nc3nc4ccccc4n3Cc3ccc(CO)o3)CC2)c(=O)n1C [Compound 30]
ED50 [2]: 0.04 mg/kg
ED50 (peripheral serotonin): 0.02 mg/kg
ED50 [1]: 0.02 mg/kg

Cc1nc(NCc2ccccn2)n(C)c(=O)c1CCN1CCC(Nc2nc3ccccc3n2Cc2ccc(CO)o2)CC1 [Compound 39]
ED50 [2]: 0.08 mg/kg
ED50 (peripheral serotonin): 0.005 mg/kg
ED50 [1]: 0.04 mg/kg

Cc1nc(N)n(C)c(=O)c1CCN1CCC(Cc2nc3ccccc3n2Cc2ccc(F)cc2)CC1 [Compound 11, 2-amino-5-[2-[4-[[1-[(4-fluorophenyl)methyl]-1H-benzimidazol-2-yl]-methyl]-1-piperidinyl]ethyl]-3,6-dimethyl-4(3H)pyrimidinone]
ED50 [2]: 0.02 mg/kg
ED50 (peripheral serotonin): 0.005 mg/kg
ED50 [1]: 0.16 mg/kg

CNc1nc(C)c(CCN2CCC(Nc3nc4ccccc4n3Cc3ccc(CO)o3)CC2)c(=O)n1C [Compound 17, 5-[2-[4-[[1-[[5-(hydroxymethyl)-2-furanyl]methyl]-1H-benzimidazol-2-yl]amino]-1-piperidinyl]ethyl]-3,6-dimethyl-2(methylamino)-4(3H)-pyrimidinone]
ED50 [2]: 0.02 mg/kg
ED50 (peripheral serotonin): 0.002 mg/kg
ED50 [1]: 0.01 mg/kg

Cc1nc2ccccn2c(=O)c1CCN1CCC(Nc2nc3cccnc3n2Cc2ccco2)CC1 [reference, 3-[2-[4-[[3-(2-furanylmethyl)-3H-imidazo[4,5-b]pyridin-2-yl]amino]-1-piperidinyl]ethyl]-2-methyl-4H-pyrido[1,2-a]pyrimidin-4-one, reference compound]
ED50 [2]: 0.08 mg/kg
ED50 (peripheral serotonin): 0.63 mg/kg
ED50 [1]: 0.63 mg/kg

Cc1nc(N)n(C)c(=O)c1CCN1CCC(Nc2nc3ccccc3n2Cc2ccc(F)cc2)CC1 [Compound 7]
ED50 (peripheral serotonin): 0.01 mg/kg
ED50 [1]: 0.02 mg/kg

Cc1nc2n(C)c(C)cn2c(=O)c1CCN1CCC(Cc2nc3ccccc3n2Cc2ccc(F)cc2)CC1 [Compound 50]
ED50 [2]: 0.04 mg/kg
ED50 (peripheral serotonin): 0.02 mg/kg
ED50 [1]: 0.16 mg/kg

CCCNc1nc(C)c(CCN2CCC(Nc3nc4ccccc4n3Cc3ccc(CO)o3)CC2)c(=O)n1C [Compound 43, 5-[2-[4-[[1-[[5-(hydroxymethyl)-2-furanyl]methyl]-1H-benzimidazol-2-yl]amino]-1-piperidinyl]ethyl]-3,6-dimethyl-2-(propylamino)-4(3H)-pyrimidinone]
ED50 [2]: 0.08 mg/kg
ED50 (peripheral serotonin): 0.005 mg/kg
ED50 [1]: 0.04 mg/kg

CC1=NN(C)c2nc(C)c(CCN3CCC(Cc4nc5ccccc5n4Cc4ccc(F)cc4)CC3)c(=O)n2C1 [Compound 58]
ED50 [2]: 0.04 mg/kg
ED50 (peripheral serotonin): 0.02 mg/kg
ED50 [1]: 0.16 mg/kg

Cc1nc(N)n(C)c(=O)c1CCN1CCC(Nc2nc3ccccc3n2Cc2ccc(CO)o2)CC1 [Compound 15, 2-amino-5-[2-[4-[[1-[[5-hydroxymethyl-2-furanyl]methyl]-1H-benzimidazol-2-yl]amino]-1-piperidinyl]ethyl]-3,6-dimethyl-4(3H)-pyrimidinone]
ED50 [2]: 0.02 mg/kg
ED50 (peripheral serotonin): 0.002 mg/kg
ED50 [1]: 0.005 mg/kg
